ChEMBL document CHEMBL5137049, “Discovery of a Novel Small-Molecule Inhibitor Disrupting TRBP-Dicer Interaction against Hepatocellular Carcinoma via the Modulation of microRNA Biogenesis” (J Med Chem, 2022)
Activity calls are given as the source filed them. No cut-off for these calls is given here.

Key:
[1] = tested on: HeLa; experiment: Inhibition of microRNA in human HeLa cells transfected with pCI-neo-luciferase-miR-21 plasmid assessed as change in luciferase signal by measuring relative luciferase unit by luciferase reporter assay; format: cell-based
[2] = target: T1, Programmed cell death protein 4 (Homo sapiens) (UniProt Q53EL6); experiment: Inhibition of PDCD4 in human HeLa cells tranfected with pCI-neo-luciferase-PDCD4 3'-UTR plasmid assessed as fold change in luciferase signal by measuring relative luciferase unit by luciferase reporter assay; format: cell-based
T1 sequence (whole entry): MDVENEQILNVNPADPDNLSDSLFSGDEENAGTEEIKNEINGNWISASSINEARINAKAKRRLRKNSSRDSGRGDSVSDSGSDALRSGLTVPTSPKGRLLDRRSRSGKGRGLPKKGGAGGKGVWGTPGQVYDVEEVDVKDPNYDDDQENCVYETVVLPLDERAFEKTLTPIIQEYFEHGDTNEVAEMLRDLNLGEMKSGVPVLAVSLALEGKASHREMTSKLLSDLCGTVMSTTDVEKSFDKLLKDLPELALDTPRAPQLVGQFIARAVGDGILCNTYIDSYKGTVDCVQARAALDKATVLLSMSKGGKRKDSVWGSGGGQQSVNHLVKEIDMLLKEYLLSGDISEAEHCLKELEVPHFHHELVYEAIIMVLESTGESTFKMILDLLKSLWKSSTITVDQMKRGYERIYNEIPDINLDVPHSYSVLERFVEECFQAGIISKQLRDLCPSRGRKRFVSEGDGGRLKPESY

[3] = tested on: SK-HEP1; experiment: Antiproliferative activity against human SK-HEP1 cells assessed as inhibition of cell growth incubated for 72 hrs by CellTiter-luminescence assay; format: functional, cell-based
[4] = tested on: SK-HEP1; experiment: Inhibition of cell migration in human SK-HEP1 cells at 10 to 25 uM measured after 24 hrs by crystal violet staining based transwell assay; format: functional; conditions: dose 10-25 µM
[5] = Inhibition of microRNA in human HeLa cells transfected with pCI-neo-luciferase-miR-21 plasmid assessed as change in luciferase signal incubated for 24 hrs by luciferase reporter assay; format: cell-based
[6] = tested on: HCCLM3; experiment: Antiproliferative activity against human HCCLM3 cells assessed as inhibition of cell growth incubated for 72 hrs by CellTiter-luminescence assay; format: functional, cell-based

Molecule `COc1ccc(S(=O)(=O)N(Cc2nc(-c3ccc(OC)c(OC)c3)oc2C)[C@@H](C(=O)NO)C(C)C)cc1` has an RLU [1] of 1.02 and an RLU [2] of 0.86.
Work on `Cc1ccc(S(=O)(=O)N(Cc2nc(-c3ccc(Cl)cc3)oc2C)[C@@H](C(=O)O)C(C)C)cc1` yielded an RLU [1] of 1.14 and an RLU [2] of 1.03.
In the case of `CCOC(=O)c1nc(-c2ccc(C)cc2)oc1C`, the Activity [3] is reported as “Active”, the inhibition [4] is reported as “Active” and the EC50 [5] is reported as 2.99 µM. For the same molecule, the Activity [6] was “Active”.
With `COC(=O)[C@@H](C(C)C)N(Cc1nc(-c2ccc(Cl)cc2)oc1C)S(=O)(=O)c1ccc(C)cc1` the RLU [1] was 1.03 and the RLU [2] was 1.08.
In the case of `CCOC(=O)c1nc(-c2ccc(OC)c(OC)c2)oc1C`, the RLU [1] is reported as 1.35 and the RLU [2] is reported as 1.17.
With `COC(=O)[C@@H](C(C)C)N(Cc1nc(-c2cc(OC)c(OC)c(OC)c2)oc1C)S(=O)(=O)c1ccc(OC)cc1` the RLU [1] was 1.08 and the RLU [2] was 1.03.
`Cc1oc(-c2ccccc2)nc1CCl` showed an RLU [1] of 1.13 and an RLU [2] of 1.03.
In the case of `Cc1oc(-c2ccc(Cl)cc2)nc1CCl`, the RLU [1] is reported as 1.22 and the RLU [2] is reported as 1.11.
`COc1ccc(S(=O)(=O)N(Cc2nc(-c3ccc(OCc4ccccc4)cc3)oc2C)[C@@H](C(=O)O)C(C)C)cc1` gave an RLU [1] of 2.47 and an RLU [2] of 1.65.
`COc1ccc(S(=O)(=O)N(Cc2nc(-c3ccccc3)oc2C)[C@@H](C(=O)O)C(C)C)cc1` gave an RLU [1] of 1.05 and an RLU [2] of 1.01.
With `COC(=O)[C@@H](C(C)C)N(Cc1nc(-c2ccc(OCc3ccccc3)cc2)oc1C)S(=O)(=O)c1ccc(OC)cc1` the RLU [1] was 1.58 and the RLU [2] was 1.32.
`Cc1oc(-c2ccc(OCc3ccccc3)cc2)nc1CCl` gave an RLU [1] of 4.77 and an RLU [2] of 2.01.
`COc1ccc(-c2nc(CN([C@@H](C(=O)NO)C(C)C)S(=O)(=O)c3ccc(OC)cc3)c(C)o2)cc1` gave an RLU [1] of 1.01 and an RLU [2] of 1.02.
Molecule `CCOC(=O)c1nc(-c2cc(OC)c(OC)c(OC)c2)oc1C` has an RLU [1] of 1.13 and an RLU [2] of 1.09.
In the case of `COc1ccc(S(=O)(=O)N(Cc2nc(-c3cc(OC)c(OC)c(OC)c3)oc2C)[C@@H](C(=O)O)C(C)C)cc1`, the RLU [1] is reported as 1.08 and the RLU [2] is reported as 1.02.
In the case of `COC(=O)[C@@H](C(C)C)N(Cc1nc(-c2ccc(Cl)cc2)oc1C)S(=O)(=O)c1ccc(OC)cc1`, the RLU [1] is reported as 1.12 and the RLU [2] is reported as 0.93.
`COC(=O)[C@@H](C(C)C)N(Cc1nc(-c2ccc([N+](=O)[O-])cc2)oc1C)S(=O)(=O)c1ccc(OC)cc1` showed an RLU [1] of 0.98 and an RLU [2] of 0.96.
In the case of `Cc1oc(-c2ccc(-c3ccccc3)cc2)nc1C(=O)OCCO`, the Activity [3] is reported as “Active”, the inhibition [4] is reported as “Active” and the EC50 [5] is reported as 7.44 µM. For the same molecule, the Activity [6] was “Active”.
Work on `COc1ccc(S(=O)(=O)N(Cc2nc(-c3ccc(Cl)cc3)oc2C)[C@@H](C(=O)O)C(C)C)cc1` yielded an RLU [1] of 1.06 and an RLU [2] of 0.97.
Molecule `COC(=O)[C@H](NS(=O)(=O)c1ccc(OC)cc1)C(C)C` has an RLU [1] of 1.02 and an RLU [2] of 1.06.
`COc1ccc(-c2nc(CN([C@@H](C(=O)O)C(C)C)S(=O)(=O)c3ccc(OC)cc3)c(C)o2)cc1` gave an RLU [1] of 1.04 and an RLU [2] of 1.
`COc1ccc(-c2nc(CN([C@@H](C(=O)O)C(C)C)S(=O)(=O)c3ccc(C)cc3)c(C)o2)cc1` gave an RLU [1] of 1.12 and an RLU [2] of 1.05.
Molecule `COc1ccc(S(=O)(=O)N(Cc2nc(-c3ccc([N+](=O)[O-])cc3)oc2C)[C@@H](C(=O)O)C(C)C)cc1` has an RLU [1] of 1.17 and an RLU [2] of 1.02.
For `COc1ccc(S(=O)(=O)N(Cc2nc(-c3cc(OC)c(OC)c(OC)c3)oc2C)[C@@H](C(=O)NO)C(C)C)cc1`, the RLU [1] was 1.06 and the RLU [2] was 0.94.
`CCOC(=O)c1nc(-c2ccc(Cl)cc2)oc1C` showed an EC50 [5] of 7.34 µM.
In the case of `COc1ccc(-c2nc(CCl)c(C)o2)cc1`, the RLU [1] is reported as 1.12 and the RLU [2] is reported as 1.05.
Molecule `COC(=O)[C@@H](C(C)C)N(Cc1nc(-c2ccccc2)oc1C)S(=O)(=O)c1ccc(OC)cc1` has an RLU [1] of 0.96 and an RLU [2] of 1.09.
`COc1ccc(S(=O)(=O)N(Cc2nc(-c3ccc(OC)c(OC)c3)oc2C)[C@@H](C(=O)O)C(C)C)cc1` showed an RLU [1] of 1.02 and an RLU [2] of 0.86.
In the case of `CCOC(=O)c1nc(-c2ccc(-c3ccccc3)cc2)oc1C`, the Activity [3] is reported as “Active”, the inhibition [4] is reported as “Active” and the EC50 [5] is reported as 1.85 µM. For the same molecule, the Activity [6] was “Active”.
With `COC(=O)[C@@H](C(C)C)N(Cc1nc(-c2ccc(OC)cc2)oc1C)S(=O)(=O)c1ccc(C)cc1` the RLU [1] was 1.06 and the RLU [2] was 1.04.
Molecule `CCOC(=O)c1nc(-c2ccccc2)oc1C` has an RLU [1] of 1.14 and an RLU [2] of 1.07.
Molecule `CCOC(=O)c1nc(-c2ccc(Br)cc2)oc1C` has an EC50 [5] of 5.98 µM.
Work on `COc1ccc(S(=O)(=O)N(Cc2nc(-c3ccccc3)oc2C)[C@@H](C(=O)NO)C(C)C)cc1` yielded an RLU [1] of 1.02 and an RLU [2] of 0.98.
Work on `COC(=O)[C@@H](C(C)C)N(Cc1nc(-c2ccc(OC)cc2)oc1C)S(=O)(=O)c1ccc(OC)cc1` yielded an RLU [1] of 0.99 and an RLU [2] of 1.03.
`Cc1oc(-c2ccc([N+](=O)[O-])cc2)nc1CCl` gave an RLU [1] of 1.2 and an RLU [2] of 1.11.
In the case of `COc1ccc(-c2nc(CCl)c(C)o2)cc1OC`, the RLU [1] is reported as 1.3 and the RLU [2] is reported as 1.06.
For `COC(=O)[C@@H](C(C)C)N(Cc1nc(-c2ccc(OC)c(OC)c2)oc1C)S(=O)(=O)c1ccc(C)cc1`, the RLU [1] was 1.08 and the RLU [2] was 0.95.
For `COc1ccc(-c2nc(CN([C@@H](C(=O)O)C(C)C)S(=O)(=O)c3ccc(C)cc3)c(C)o2)cc1OC`, the RLU [1] was 0.98 and the RLU [2] was 0.97.
With `COC(=O)[C@@H](C(C)C)N(Cc1nc(-c2ccc(OC)c(OC)c2)oc1C)S(=O)(=O)c1ccc(OC)cc1` the RLU [1] was 1.06 and the RLU [2] was 0.95.
`COC(=O)[C@H](NS(=O)(=O)c1ccc(C)cc1)C(C)C` gave an RLU [1] of 1.04 and an RLU [2] of 1.03.
Molecule `COc1cc(-c2nc(CCl)c(C)o2)cc(OC)c1OC` has an RLU [1] of 1.09 and an RLU [2] of 2.01.
